“Also recorded” adds a separate entry of the source.
Legend:
AbFtsZ = AbFtsZ polymerization, 90° light scattering; format: biochemical, Acinetobacter baumannii; settings: test compound at 128 μg/mL, AbFtsZ 0.15 mg/mL, 1 mM GTP, 8°C
Experimental: Effects on inhibition of the cinnamaldehyde derivatives on AbFtsZ polymerization were analyzed using the assay as previously described ([Chai et al., 2020]) with the following modifications. A reaction mix was prepared in a cold Eppendorf® tube where AbFtsZ (0.15 mg/mL) was mixed with the test compound at the desired concentration and a polymerization buffer diluted from a double strength buffer to give a final concentration of 25 mM PIPES pH 6.8, 50 mM KCl and 10 mM MgCl2. The reaction mix was prepared such that the DMSO concentration remained constant at 2% (v/v). The mix was then added into a quartz cuvette (PerkinElmer®, United Kingdom), and placed in a PerkinElmer® LS 55 fluorometer under the fixed condition of excitation/emission at 350/350 nm, slit width < 2 nm, a 1 s read interval. The temperature was calibrated to remain constant at 8°C. The fluorescence was followed for 300 sec to allow equilibration, then polymerization was initiated with the addition of 1 mM GTP. A separate negative control was prepared where 1 mM GDP was added instead of the GTP. The reaction was followed for 600 s.
(A–F) AbFtsZ (0.15 mg/mL) was pre-incubated in polymerization buffer (25 mM PIPES pH 6.8, 50 mM KCl and 10 mM MgCl2) together with the test compound at 128 μg/mL for 300 s. Polymerization was then initiated with the addition of 1 mM GTP. The fluorescence was measured as a function of time at excitation and emission wavelengths of A350 and A350 nm, respectively, and a slit width of <2 nm. The blue line in each panel indicates the addition of 2.5% (v/v) DMSO, the pink line indicates the test compound tested at 128 μg/mL and the gray line represents the addition of 1 mM GDP (as negative control) instead of GTP.

mammalian tubulin = biological target: T1, mammalian tubulin (Sus scrofa, UniProt P02550+P02554); experiment: Mammalian tubulin polymerization assay kit; format: biochemical, porcine; settings: compounds at 1 × MIC, 1 mM GTP, 37°C
T1 construct: purchased Cytoskeleton Inc. BK011P
T1 sequence (P02550 whole entry): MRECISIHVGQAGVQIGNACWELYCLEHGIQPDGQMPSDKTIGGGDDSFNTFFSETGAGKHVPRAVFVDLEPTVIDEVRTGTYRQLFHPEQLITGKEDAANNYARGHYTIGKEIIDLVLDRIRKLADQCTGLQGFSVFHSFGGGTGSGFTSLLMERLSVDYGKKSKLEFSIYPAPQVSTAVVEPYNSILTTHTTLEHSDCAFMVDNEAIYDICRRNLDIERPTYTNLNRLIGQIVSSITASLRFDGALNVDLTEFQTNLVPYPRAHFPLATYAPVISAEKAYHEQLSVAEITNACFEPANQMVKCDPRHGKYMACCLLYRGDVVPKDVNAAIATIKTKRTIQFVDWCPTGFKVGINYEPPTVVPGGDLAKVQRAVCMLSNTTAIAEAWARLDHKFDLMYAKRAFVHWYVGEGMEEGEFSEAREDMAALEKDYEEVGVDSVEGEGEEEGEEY
T1 sequence (P02554 whole entry): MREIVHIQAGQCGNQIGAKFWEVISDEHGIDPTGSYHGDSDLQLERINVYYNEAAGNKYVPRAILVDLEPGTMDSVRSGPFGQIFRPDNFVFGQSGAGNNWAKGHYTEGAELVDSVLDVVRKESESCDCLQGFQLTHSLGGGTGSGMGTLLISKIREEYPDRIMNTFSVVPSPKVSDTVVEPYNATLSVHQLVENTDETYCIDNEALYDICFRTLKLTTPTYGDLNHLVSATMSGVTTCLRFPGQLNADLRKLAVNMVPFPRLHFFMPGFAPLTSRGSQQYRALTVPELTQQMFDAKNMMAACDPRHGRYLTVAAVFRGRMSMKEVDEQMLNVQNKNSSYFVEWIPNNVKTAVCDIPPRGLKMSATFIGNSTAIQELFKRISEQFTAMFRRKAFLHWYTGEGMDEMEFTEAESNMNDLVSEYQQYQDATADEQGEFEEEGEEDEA
Experimental: The effects of the cinnamaldehyde analogs were analyzed for off-target effects on mammalian tubulin using the protocol as previously described ([Chai et al., 2020]), using a Tubulin Polymerization Assay Kit (Cytoskeleton Inc., BK011P, Denver, CO, United States), following the protocol described by the manufacturer.
Controls included 20 μM paclitaxel (promoter of polymerization), 20 μM vinblastine (inhibitor of polymerization) and 2.5% (v/v) DMSO (solvent control). The reaction was initiated by the addition of 1 mM GTP at 37°C. The fluorescence was read for 2,000 s using PerkinElmer Enspire® plate reader.
FIGURE 7 The effect of the LXC compounds on the polymerization of mammalian tubulin. (A–F) The polymerizing activity of the LXC compounds on porcine tubulin was assessed using a commercial Tubulin Polymerization Assay Kit. The LXC compounds at 1 × MIC were pre-incubated with tubulin on ice before the reaction was initiated by the addition of 1 mM GTP. The fluorescence was measured as a function of time at A360 and A420 nm excitation and emission wavelengths, respectively, at the constant temperature of 37°C. DMSO 2.5% (v/v) (brown curves) was used as vehicle control while paclitaxel (polymerization stabilizer; blue curves) and vinblastine (polymerization inhibitor; green curves) at 20 μM each were also included as controls.

[1] = test system: HepG2 (ATCC HB-8065) cells; experiment: RealTime-Glo MT cell viability assay; format: cell-based; settings: 24 h
Experimental: The effects of the cinnamaldehyde analogs were analyzed for off-target effects on mammalian cells using the protocol as previously described ([Chai et al., 2020]) with the following modifications. In vitro cytotoxicity was assessed in HepG2 (ATCC HB-8065) cells using the RealTime-Glo™ MT Cell Viability Assay Kit (Promega) as described previously ([Wang et al., 2017]). The LXC compounds were tested at 1 × and 2 × MIC using a final DMSO concentration of 2% (v/v) in the assay. […] The luminescence signal was read at 5-min intervals over 24 h in a Cytation5® Cell Imaging Multi-Mode Reader (Bio-Tek®), at 37°C in the presence of 5% CO2.
FIGURE 8 The LXC compounds are generally non-toxic at a concentration of 1 × MIC. (A–F) Real-time liver cell viability measurements for HepG2 after treatment with 1 × (pink line) and 2 × (brown line) MIC values. […] Cell viability was measured every 5 min for 24 h at 37°C and 5% CO2 on a Cytation5® Cell Imaging Multi-Mode Reader using the RealTime-Glo™ MT Cell Viability Assay reagent. The results are presented in mean ± SEM (hourly SEM data was presented).

A. baumannii ATCC 19606 = experiment: Cell division phenotype by light microscopy; format: cell-based, Acinetobacter baumannii; settings: LXC compounds at 2 × MIC
Experimental: Morphological changes of bacteria when exposed to the compounds were assessed microscopically using the assay as previously described ([Chai et al., 2020]). Eppendorf® tubes were set up with A. baumannii ATCC 19606 as described for the time-kill assays. At time 0, 1, 3, 6, and 18 h, an aliquot of the bacterial suspension (1 μL) was transferred onto a glass slide and viewed under a light microscope (Olympus CX33®) at 100 × magnification. Representative images were captured using JENOPTIK GRYPHAX® imaging.
A 1 μL aliquot was taken out at varying timepoints (0, 1, 3, 6, and 18 h) and imaged by light microscopy. The images for 6 h are depicted here. […] The white arrow indicates “grooving” site, an indication of where separation of daughter cells should take place. Scale bar is 50 μm.
Four of the compounds (LXC 31, 33, 35 and 41) were tested at 1× and 2× their minimum inhibitory concentration (MIC) whereas LXC 36 and 43 were tested at 2× and 4× MIC. The phenotypic changes in A. baumannii morphology were analysed under a light microscope (100× magnification) at time 0, 1, 3, 6 and 18 h. Scale bar is 50 µm.

Row | Compound | Inhibition of AbFtsZ polymerization (AbFtsZ) | Effect on tubulin polymerization (mammalian tubulin) | Cytotoxicity, HepG2 cell viability ([1]; 2 × MIC) | Time until elongated phenotype is seen (A. baumannii ATCC 19606) [h] | Cytotoxicity, HepG2 cell viability ([1]; 1 × MIC)
1 | Cc1nc2ccccc2n1C(=O)/C=C/c1ccccc1 [Compound 1] | strongest activity observed with compound 5, followed by compounds 1 and 6 | undesirable inhibitory activity | cytotoxicity was also observed | > 3 | –
2 | Cc1nc2ccccc2n1C(=O)/C=C/c1ccc(Cl)cc1Cl [Compound 6] | strongest activity observed with compound 5, followed by compounds 1 and 6 | devoid of tubulin polymerization activity; also recorded: lack of activity against the tubulin counter-target | devoid of hemolytic activity and cytotoxicity against mammalian cells in vitro; also recorded: devoid of undesirable toxicity | ≤ 3 | –
3 | Cc1nc2ccccc2n1C(=O)/C=C/c1ccc(F)cc1 [Compound 2] | – | devoid of tubulin polymerization activity | cytotoxicity was also observed | ≤ 3 | –
4 | Cc1nc2ccccc2n1C(=O)/C=C/c1ccc(Cl)cc1 [Compound 3] | – | undesirable inhibitory activity | cytotoxicity was also observed | ≤ 3 | –
5 | Cc1nc2ccccc2n1C(=O)/C=C/c1ccc(Br)cc1 [Compound 4] | – | undesirable inhibitory activity against tubulin | devoid of undesirable toxicity | ≤ 3 | –
6 | COc1ccc(/C=C/C(=O)n2c(C)nc3ccccc32)cc1OC [Compound 5] | strongest activity | devoid of tubulin polymerization activity | – | – | displayed cytotoxicity

From publication PMC9465178, “Cinnamaldehyde derivatives act as antimicrobial agents against Acinetobacter baumannii through the inhibition of cell division” (Frontiers in Microbiology, 2022)
